Results published in publication PMC9248904, “Genomic and Chemical Decryption of the Bacteroidetes Phylum for Its Potential to Biosynthesize Natural Products” (Microbiology Spectrum, 2022).
Values after ≈ are worked out from the molar mass of the structure shown. Where two headings read alike, the source gives them in different places. *1 amine or outer side, *2 acyl side, *3 side chain or, on linkers, in order; H or OH if unused. Where a SMILES comes first, the peptide text is derived from it. Bridges are numbered along the chain shown (N, C = ends). [ ]: non-standard residue; d: D form. The star is where a group is joined. Phe(3R-OH) = O=C([C@@H](N[*:1])[C@H](O[*:3])c1ccccc1)[*:2]; Asp(3S-OH) = N[C@H](C(=O)O)[C@H](O)C(=O)O; Ile(3R-OH) = CC[C@@](C)(O)[C@H](N)C(=O)O; d(aIle) = CC[C@H](C)[C@@H](N)C(=O)O; d(aThr) = C[C@@H](O)[C@@H](N)C(=O)O; X1 = CC(C)CCCCCC(N)C(C)C(=O)*; NMeV = CN[C@H](C(=O)O)C(C)C; X2 = CCCCCCCC(N)C(C)C(=O)*; Dap = NC[C@H](N)C(=O)O

Columns and labels:
Candida albicans FH2173 = assay: microbe, parasite or virus in culture; format: cell-based; details: C. albicans FH2173, at least triplicate; for MIC: MHIIB, 2 days 37°C, BacTiter-Glo, Iron -
Method: (§1) The MIC was determined by broth microdilution method in 96-well plates with 100 µL assay volume per well following EUCAST instructions ([116], [117]) for E. coli ATCC 35218, E. coli ATCC 25922 ΔTolC, E. coli MG1655, Pseudomonas aeruginosa ATCC 27853, P. aeruginosa PAO750, Klebsiella pneumoniae ATCC 13883, Moraxella catarrhalis ATCC 25238, Acinetobacter baumannii ATCC 19606, Bacillus subtilis DSM 10, Staphylococcus aureus ATCC 25923, and Micrococcus luteus DSM 20030. Listeria monocytogenes DSM 20600 (1 day of incubation at 37°C) and Mycobacterium smegmatis ATCC 607 (2 days of incubation at 37°C) were grown in BHI broth supplemented with 1% (vol/vol) Tween 80. Candida albicans FH2173 was grown in MHIIB over 2 days of incubation at 37°C (pre-culture 2 days at 28°C). Approximate inoculation cell density for all strains was 500,000 CFU/mL, except 1,000,000 CFU/mL were used for M. smegmatis and C. albicans. For all fungal screenings 100,000 spores/mL were used and incubated at 37°C for Aspergillus flavus ATCC 9170 (MHIIB) and 25°C for Z. tritici MUCL45407 (4 g/L yeast extract, 4 g/L malt extract, 4 g/L sucrose) and Fusarium oxysporum ATCC 7601 (potato dextrose broth, Sigma). Growth inhibition was detected by optical density (600 nm) or for M. luteus, L. monocytogenes, C. albicans, M. smegmatis, and all fungi by quantification of free ATP using BacTiter-Glo after 24 to 48 h (72 h for Z. tritici). All MIC assays were performed at least in triplicate. FE(III)-citrate was added at molar ratios of 1:1 to samples in DMSO to test compounds in their iron bound conformation.

[1] = test system: Fusarium oxysporum ATCC 7601; assay: microbe, parasite or virus in culture; format: cell-based
Method: as §1

Z. tritici MUCL45407 = assay: microbe, parasite or virus in culture; format: cell-based
Method: as §1

E. coli ATCC 25922 ΔTolC = format: cell-based, Escherichia coli; details: broth microdilution, 96-well, EUCAST, OD600, Iron -, at least triplicate
Method: as §1

E. coli ATCC 35218 = format: cell-based, Escherichia coli
Method: as §1

E. coli MG1655 = format: cell-based, Escherichia coli; details: broth microdilution, 96-well, EUCAST, OD600, Iron -, at least triplicate
Method: as §1

P. aeruginosa PAO750 = format: cell-based, Pseudomonas aeruginosa; details: broth microdilution, 96-well, EUCAST, OD600, Iron -, at least triplicate
Method: as §1

[2] = test system: Acinetobacter baumannii ATCC 19606; format: cell-based
Method: as §1

Bacillus subtilis DSM 10 = format: cell-based
Method: as §1

[3] = test system: Klebsiella pneumoniae ATCC 13883; format: cell-based
Method: as §1

[4] = test system: Micrococcus luteus DSM 20030; format: cell-based
Method: as §1

[5] = test system: Moraxella catarrhalis ATCC 25238; format: cell-based
Method: as §1

[6] = test system: Pseudomonas aeruginosa ATCC 27853; format: cell-based
Method: as §1

[7] = test system: Staphylococcus aureus ATCC 25923; format: cell-based
Method: as §1

[8] = test system: Aspergillus flavus ATCC 9170; assay: microbe, parasite or virus in culture; format: cell-based
Method: as §1

[9] = test system: Mycobacterium smegmatis ATCC 607; assay: microbe, parasite or virus in culture; format: cell-based; details: M. smegmatis ATCC 607, BHI broth + 1% Tween 80, 2 days 37°C, BacTiter-Glo, Iron -, at least triplicate
Method: as §1

[10] = test system: Listeria monocytogenes DSM 20600; format: cell-based; details: L. monocytogenes DSM 20600; BHI broth + 1% Tween 80, 1 day 37°C; BacTiter-Glo; Iron -; at least triplicate
Method: as §1

[11] = Candida albicans, 48 h, read-out: MIC
[12] = Fusarium oxysporum, ATCC7601, F. oxysporum ATCC 7601, potato dextrose broth, 25°C, 100,000 spores/mL, BacTiter-Glo, Iron -, at least triplicate, read-out: MIC
[13] = Z. tritici MUCL45407, 25°C, 72 h, 100,000 spores/mL, BacTiter-Glo, Iron -, at least triplicate
[14] = A. flavus ATCC 9170, MHIIB, 37°C, 100,000 spores/mL, BacTiter-Glo, Iron -, at least triplicate
[15] = F. oxysporum ATCC 7601, potato dextrose broth, 25°C, 100,000 spores/mL, BacTiter-Glo, Iron -, at least triplicate
[16] = E. coli ATCC 35218, broth microdilution, 96-well, EUCAST, OD600, chitinopeptins without iron (Iron -), at least triplicate
[17] = A. baumannii ATCC 19606, broth microdilution, 96-well, EUCAST, OD600, Iron -, at least triplicate
[18] = B. subtilis DSM 10, broth microdilution, 96-well, EUCAST, OD600, Iron -, at least triplicate
[19] = M. luteus DSM 20030, broth microdilution, 96-well, free ATP (BacTiter-Glo), Iron -, at least triplicate
[20] = M. catarrhalis ATCC 25238, broth microdilution, 96-well, EUCAST, OD600, Iron -, at least triplicate
[21] = P. aeruginosa ATCC 27853, broth microdilution, 96-well, EUCAST, OD600, Iron -, at least triplicate
[22] = S. aureus ATCC 25923, broth microdilution, 96-well, EUCAST, OD600, Iron -, at least triplicate
[23] = K. pneumoniae ATCC 13883, broth microdilution, 96-well, EUCAST, OD600, Iron -, at least triplicate

Compound	MIC (E. coli ATCC 25922 ΔTolC) [µg/mL]	MIC (E. coli MG1655) [µg/mL]	MIC (P. aeruginosa PAO750) [µg/mL]	MIC (Candida albicans FH2173) [µg/mL]	MIC (Z. tritici MUCL45407; [13]) [µg/mL]	MIC [8, 14] [µg/mL]	MIC [1, 15] [µg/mL]	MIC (E. coli ATCC 35218; [16]) [µg/mL]	MIC [2, 17] [µg/mL]	MIC (Bacillus subtilis DSM 10; [18]) [µg/mL]	MIC [4, 19] [µg/mL]	MIC [5, 20] [µg/mL]	MIC [6, 21] [µg/mL]	MIC [7, 22] [µg/mL]	MIC [9] [µg/mL]	also measured
C[C@@H]1[C@H](O)[C@@H](C)/C=C/C=C/C=C/C=C/C=C/C=C/C=C/[C@H](O[C@@H]2O[C@H](C)[C@@H](O)[C@H](N)[C@@H]2O)C[C@@H]2O[C@](O)(C[C@@H](O)C[C@@H](O)[C@H](O)CC[C@@H](O)C[C@@H](O)CC(=O)O[C@H]1C)C[C@H](O)[C@H]2C(=O)O [Amphotericin B, reference compound]																MIC (Candida albicans FH2173; [11]): 4 µg/mL (≈ 4.33 µM); MIC [1, 12]: 4 µg/mL (≈ 4.33 µM); MIC (Z. tritici MUCL45407; Zymoseptoria tritici, MUCL45407, 72 h): 0.031 µg/mL (≈ 0.0335 µM)
CC[C@H](C)[C@H]1NC(=O)[C@H]([C@H](O)c2ccccc2)NC(=O)[C@H]([C@H](O)C(=O)O)NC(=O)[C@@H](C)NC(=O)[C@H](NC(=O)[C@H](C(C)C)N(C)C(=O)C(C)C(N)CCCCCC(C)C)[C@@H](C)OC(=O)[C@H]([C@](C)(O)CC)NC(=O)[C@H]([C@H](O)C(=O)O)NC(=O)[C@H](CC(C)C)NC(=O)[C@H]([C@H](O)C(=O)O)NC(=O)[C@@H](CC(C)C)NC(=O)[C@H](CN)NC(=O)[C@@H](CCCCN)NC(=O)[C@H](CO)NC1=O (stereo partly drawn) [Chitinopeptin A] (X1-[NMeV][d(aThr)][dA][Asp(3S-OH)][Phe(3R-OH)][d(aIle)]S[dK][Dap][dL][Asp(3S-OH)]L[Asp(3S-OH)][Ile(3R-OH)]; ester 2-C)	> 64	> 256	> 64	4 (≈ 2.21 µM)	16 (≈ 8.84 µM)											MIC (E. coli ATCC 35218; ATCC 35218): > 64 µg/mL; MIC ([2]; ATCC 19606): 16 µg/mL (≈ 8.84 µM); MIC (Bacillus subtilis DSM 10; DSM 10): 4 µg/mL (≈ 2.21 µM); MIC, iron bound form (Bacillus subtilis DSM 10; DSM 10): 8 µg/mL (≈ 4.42 µM); MIC ([3]; ATCC 13883): > 64 µg/mL; MIC ([4]; DSM 20030): 32 µg/mL (≈ 17.7 µM); MIC ([5]; ATCC 25238): 2 µg/mL (≈ 1.11 µM); MIC, iron bound form ([5]; ATCC 25238): 4 µg/mL (≈ 2.21 µM); MIC ([6]; ATCC 27853): > 64 µg/mL; MIC ([7]; ATCC 25923): > 64 µg/mL; MIC ([8]; ATCC 9170): > 64 µg/mL; MIC, iron bound form (Candida albicans FH2173; Iron +: Fe(III)-citrate added at molar ratio 1:1): 32 µg/mL; MIC (Candida albicans FH2173; listed as 1): 4 to 8 µg/mL; MIC ([1]; ATCC 7601): > 64 µg/mL
CCCCCCCC(N)C(C)C(=O)N(C)[C@H](C(=O)N[C@H]1C(=O)N[C@H](C)C(=O)N[C@@H]([C@H](O)C(=O)O)C(=O)N[C@@H]([C@H](O)c2ccccc2)C(=O)N[C@H]([C@@H](C)CC)C(=O)N[C@@H](CO)C(=O)N[C@H](CCCCN)C(=O)N[C@@H](CN)C(=O)N[C@H](CC(C)C)C(=O)N[C@@H]([C@H](O)C(=O)O)C(=O)N[C@@H](CC(C)C)C(=O)N[C@@H]([C@H](O)C(=O)O)C(=O)N[C@@H]([C@](C)(O)CC)C(=O)O[C@@H]1C)C(C)C (stereo partly drawn) [Chitinopeptin B] (X2-[NMeV][d(aThr)][dA][Asp(3S-OH)][Phe(3R-OH)][d(aIle)]S[dK][Dap][dL][Asp(3S-OH)]L[Asp(3S-OH)][Ile(3R-OH)]; ester 2-C)	> 64			8 (≈ 4.46 µM)	16 (≈ 8.91 µM)											MIC (E. coli ATCC 35218; ATCC 35218): > 64 µg/mL; MIC ([2]; ATCC 19606): 64 µg/mL (≈ 35.7 µM); MIC (Bacillus subtilis DSM 10; DSM 10): 4 µg/mL (≈ 2.23 µM); MIC ([4]; DSM 20030): 32 µg/mL (≈ 17.8 µM); MIC ([5]; ATCC 25238): 2 µg/mL (≈ 1.11 µM); MIC ([6]; ATCC 27853): > 64 µg/mL; MIC ([7]; ATCC 25923): > 64 µg/mL; MIC ([8]; ATCC 9170): > 64 µg/mL; MIC (Candida albicans FH2173; listed as 2): 4 to 8 µg/mL; MIC ([1]; ATCC 7601): > 64 µg/mL
NNC(=O)c1ccncc1 [Isoniazid, reference compound]																MIC ([9]; Mycolicibacterium smegmatis, ATCC607, 48 h, read-out: MIC): 1 µg/mL
C[C@@H]1[C@H](O)[C@@H](C)/C=C/C=C/CC/C=C/C=C/C=C/C=C/C(O[C@H]2O[C@H](C)[C@@H](O)[C@H](N)[C@@H]2O)CC2O[C@](O)(CC(O)C(O)CCC(O)CC(O)CC(O)CC(=O)O[C@H]1C)CC(O)C2C(=O)O (stereo partly shown) [Nystatin, reference compound]				16 (≈ 17.3 µM)	0.5 (≈ 0.54 µM)	16 (≈ 17.3 µM)	4 (≈ 4.32 µM)									
CC(C)(C)C(O)(CCc1ccc(Cl)cc1)Cn1cncn1 (stereo not shown) [Tebuconazole, reference compound]																MIC ([8]; Aspergillus flavus, ATCC9170, A. flavus ATCC 9170, MHIIB, 37°C, 100,000 spores/mL, BacTiter-Glo, Iron -, at least triplicate, read-out: MIC): 2 µg/mL (≈ 6.5 µM); MIC (Candida albicans FH2173; [11]): 2 µg/mL (≈ 6.5 µM); MIC [1, 12]: > 64 µg/mL; MIC (Z. tritici MUCL45407; Zymoseptoria tritici, Z. tritici MUCL45407, 25°C, 72 h, 100,000 spores/mL, BacTiter-Glo, Iron -, at least triplicate, read-out: MIC): 0.5 µg/mL (≈ 1.62 µM)
Chitinopeptin C1+C2	> 64			16	16	64	> 64	> 64	16	4	32	2	> 64	> 64	> 64	
Chitinopeptin D1+D2	> 64			16		64	> 64	> 64	16	4	32	2	> 64	> 64	> 64	
Gentamycin [reference compound]	0.25	0.5	0.125					0.125	16	≤ 0.031	≤ 0.031	0.125	1	0.063		MIC [3, 23]: ≤ 0.031 µg/mL; MIC [10]: ≤ 0.031 µg/mL
Rifamicin [reference compound]	2	16	16					4	2	≤ 0.031	≤ 0.031	≤ 0.031	32	≤ 0.031	8	MIC [3, 23]: 8 µg/mL; MIC [10]: ≤ 0.031 µg/mL
